Measured values taken from patent publication US20240156767A1, “SCREENING METHOD FOR GLP-1 SECRETION REGULATION AGENT, GLP-1 SECRETION REGULATION AGENT, COMPOSITION FOR PREVENTING OR AMELIORATING DIABETES, OBESITY, POSTPRANDIAL HYPERGLYCEMIA, NEURODEGENERATIVE DISEASE, HYPOGLYCEMIA, ADIPOSITY, OR NESIDIOBLASTOSIS, METHOD FOR PROMOTING SECRETION OF GLP-1 IN …” (The Nisshin OilliO Group, Ltd., priority 2021, published 2024).

What was measured:
wild-type mice = test: Administration test: plasma GLP-1 concentration in wild-type mice (ELISA); format: in vivo; settings: WT mice, 1000 mg/kg oral; for Relative GLP-1 (plasma GLP-1 concentration relative to before administration = 1): 120 minutes after administration, mean±standard error
Procedure: An administration test was carried out by the following method to examine an effect of administration of various medium chain fatty acids (capric acid or lauric acid, both are a free form) to mice on plasma GLP-1 secretion. The above medium chain fatty acids correspond to GPR84 agonists. A control sample (carboxymethylcellulose), a capric acid sample, and a lauric acid sample were prepared in the same manner as in the <Test 2> above. Based on the following method, any one of a control sample, a capric acid sample, and a lauric acid sample was administered to mice in each group. In this test, two types of mice, that is, wild-type mice and GPR84 knockout mice, were prepared. As wild-type mice, 18 C57BL/6 male mice at 7- to 9-weeks old (purchased from Japan SLC, Inc.) were used. As the GPR84 knockout mice, 12 mice were prepared using C57BL/6 according to the method by Wang et al. (Pharmacological Research Volume 164, February 2021, 105406). Furthermore, the age in weeks of the GPR84 knockout mice was the same as that of the wild-type mice. Each mouse was acclimatized for one week, and then divided into six groups (a control sample-administered group, a capric acid sample-administered group, and a lauric acid sample administration group for each of the wild-type mice and the GPR84 knockout mice) so that average value of the body weight is uniform in each group. Note here that the mice were reared in plastic cages under an environment of temperature of 24±1° C., humidity of 50±10%, and a 12-hour light-dark cycle (lighting from 8:00 to 20:00). Water and solid feed (trade name “CLEA Rodent Diet CE-2 for mice, rats and hamsters”, manufactured by CLEA Japan Co., Ltd.) were fed ad libitum. However, the day before the glucose tolerance test, fasting was started from 17:00, and on the day of the test, the administration was started from 10:00. Each sample (any one of a control sample, a capric acid sample, and a lauric acid sample) was administered to each group of mice after blood was collected from the tail vein. […] Plasma was prepared by a conventional method from the blood obtained before and after sample administration, and the plasma GLP-1 concentration (pM) was measured. The plasma GLP-1 concentration was measured by ELISA using a commercially available kit (trade name “Glucagon Like Peptide-1 (Active) ELIS”, manufactured by Sigma-Aldrich). The data in FIG. 3 and Table 3 are expressed as relative values (Relative GLP-1) when the average value of plasma GLP-1 concentration before administration of each sample is set to “1”, and expressed as “mean±standard error of the relative values”. Dunnet's test was used to test significant differences between trials, and significant differences were determined to exist when the risk rate was less than 5% (*p<0.05). […]

STC-1 cells = test: Cell culture test: GLP-1 secretion from enteroendocrine STC-1 cells (ELISA); format: cell-based; settings: for GLP-1 CONCENTRATION: 30 minutes after sample, mean±standard error; for Effect on GLP-1 secretion from STC-1 cells (in words): 0.01-1.0 mM
Procedure: By carrying out a cell culture test (in vitro test) by the following method, and administering various medium chain fatty acids (capric acid or lauric acid, both are a free form) to enteroendocrine cells (STC-1 cells), an effect of each medium chain fatty acid on GLP-1 secretion was examined. The above medium chain fatty acids correspond to GPR84 agonists. To the same dimethyl sulfoxide (1 ml) as in the (1-1) above, 172 mg of capric acid (trade name “Decanoic Acid <Capric Acid>”, manufactured by New Check Prep) was added to obtain 1000 mM of capric acid samples. A 1000 mM capric acid sample (0.1 ml) was added to dimethylsulfoxide (0.9 ml) to obtain a 100 mM capric acid sample. A 100 mM capric acid sample (0.1 ml) was added to dimethylsulfoxide (0.9 ml) to obtain a 10 mM capric acid sample. Note here that when capric acid was added to dimethylsulfoxide, a mixture was mixed while heating to prepare a sample having a uniform capric acid concentration. To the same dimethylsulfoxide (1 ml) as in the (1-1) above, 200 mg of lauric acid (trade name “Dodecanoic Acid <Lauric Acid>”, manufactured by New Check Prep) was added to obtain 1000 mM of lauric acid sample. A 1000 mM lauric acid sample (0.1 ml) was added to dimethylsulfoxide (0.9 ml) to obtain a 100 mM lauric acid sample. A 100 mM lauric acid sample (0.1 ml) was added to dimethylsulfoxide (0.9 ml) to obtain a 10 mM lauric acid sample. Note here that when lauric acid was added to dimethyl sulfoxide, the mixture was mixed while heating to prepare a sample having a uniform lauric acid concentration. STC-1 cells (trade name “STC-1”, manufactured by American Type Culture Collection) were cultured in a medium at 37° C. in 5% CO2 for 48 hours to obtain STC-1 cells for testing. Note here that as the medium, a DMEM medium (trade name “Dulbecco's Modified Eagle Medium (High Glucose)”, manufactured by Sigma-Aldrich) including 15% horse serum (trade name “Horse Serum, New Zealand origin”, manufactured by Gibco) and 5% fetal bovine serum (trade name “Fetal Bovine Serum (FBS) Standard, Origin South America”, manufactured by Cosmo Bio) was used. The culture medium for STC-1 cells was replaced with a serum-free medium (300 μl/well), starvation was carried out for 30 minutes, then the serum-free medium was replaced with a new serum-free medium (300 μl/well), and 0.3 μl each of any one of samples was added to each well. Thirty minutes after administration of the sample, the medium was collected and mixed in a 1.5 ml tube in which 3 μL of DPP4 inhibitor (trade name “DPP IV Inhibitor”, manufactured by Sigma-Aldrich) had been placed in advance. Then, each tube was centrifuged at 4° C. at 1,000×g for 5 minutes, and the supernatant was collected in a new 1.5 ml tube. GLP-1 concentration (nM) in the collected supernatant was measured. Note here that the GLP-1 concentration was measured by ELISA method using a commercially available kit (trade name “Glucagon Like Peptide-1 (Active) ELISA”, manufactured by Sigma-Aldrich). In the data of FIG. 1 and Table 1, the measured values of GLP-1 concentration are expressed as “mean±standard error”. Dunnet's test was used to test significant differences between trials, and significant differences were determined to exist when the risk rate was less than 5% (*p<0.05). Also, the sample concentrations in FIG. 1 and Table 1 indicate the concentrations in the medium in the cell culture test.

Row | SMILES | Effect on plasma GLP-1 concentration (in words) (wild-type mice) | Relative GLP-1 (plasma GLP-1 concentration relative to before administration = 1) (wild-type mice) | GLP-1 CONCENTRATION (STC-1 cells; 0.01 mM in medium) | GLP-1 CONCENTRATION (STC-1 cells; 0.1 mM in medium) | GLP-1 CONCENTRATION (STC-1 cells; 1.0 mM in medium) | Effect on GLP-1 secretion from STC-1 cells (in words) (STC-1 cells)
1 | CCCCCCCCCC(=O)O [Capric acid, capric acid (n-decanoic acid)] | significantly increased the plasma GLP-1 concentration | 1.65 ± 0.29 * | 1.235 ± 0.120 nM | 1.517 ± 0.005 nM | 4.629 ± 0.087 * nM | promoted GLP-1 secretion
2 | CCCCCCCCCCCC(=O)O [Lauric acid, lauric acid] | significantly increased the plasma GLP-1 concentration | 3.02 ± 0.67 * | 1.827 ± 0.060 * nM | 3.915 ± 0.197 * nM | 4.268 ± 0.084 * nM | promoted GLP-1 secretion
